{"source": "patent US8497380B2", "about": "“Substituted acetophenones useful as PDE4 inhibitors” (Leo Pharma A/S, priority 2006, dated 2013)", "data": [{"test_system": "Human peripheral blood mononuclear cells (PBMC)", "assay": "TNFalfa-Release", "format": "cell-based", "settings": "inhibition of TNF-a secretion, PBMC pre-incubated 30 minutes, stimulated 18 hours with lipopolysaccharide", "method_in_brief": "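Buffy-coat PBMC at 5×105 c/ml in RPMI1640 with 2% FCS were pre-incubated 30 min with compound, then stimulated 18 h with LPS 1 mg/ml. Supernatant TNF-a measured by enzyme immunoassay; pIC50 from inhibition curves relative to LPS-stimulated and unstimulated wells.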", "units": {"IC50": "nM"}, "values": [{"smiles": "COc1ccc(C(=O)Cc2c(Cl)cncc2Cl)c(OCC(=O)NC2c3ccccc3C[C@H]2O)c1OC", "note": "(stereo partly drawn) [Compound 256, (2R)-2-{6-[2-(3,5-Dichloro-pyridin-4-yl)-acetyl]-2,3-dimethoxy-phenoxy}-N-(2-hydroxy-indan-1-yl)-acetamide]", "IC50": "< 1000"}, {"smiles": "COc1ccc(C(=O)Cc2c(Cl)cncc2Cl)c(OCC(=O)NCC2CCCCCC2)c1OC", "note": "[Compound 257, N-Cycloheptylmethyl-2-{6-[2-(3,5-dichloro-pyridin-4-yl)-acetyl]-2,3-dimethoxy-phenoxy}-acetamide]", "IC50": "< 1000"}, {"smiles": "COc1ccc(C(=O)Cc2c(Cl)cncc2Cl)c(OCC(=O)NCCOCCO)c1OC", "note": "[Compound 258, 2-{6-[2-(3,5-Dichloro-pyridin-4-yl)-acetyl]-2,3-dimethoxy-phenoxy}-N-[2-(2-hydroxy-ethoxy)-ethyl]-acetamide]", "IC50": "< 1000"}, {"smiles": "COc1ccc(C(=O)Cc2c(Cl)cncc2Cl)c(O)c1OC1CCCC1", "note": "[Compound 260, 1-(3-Cyclopentyloxy-2-hydroxy-4-methoxy-phenyl)-2-(3,5-dichloro-pyridin-4-yl)-ethanone]", "IC50": "< 1000"}, {"smiles": "COc1ccc(C(=O)Cc2c(Cl)cncc2Cl)c(O)c1OCC1CC1", "note": "[Compound 261, 1-(3-Cyclopropylmethoxy-2-hydroxy-4-methoxy-phenyl)-2-(3,5-dichloro-pyridin-4-yl)-ethanone]", "IC50": "< 1000"}, {"smiles": "CCOc1c(OC)ccc(C(=O)Cc2c(Cl)cncc2Cl)c1O", "note": "[Compound 262, 2-(3,5-Dichloro-pyridin-4-yl)-1-(3-ethoxy-2-hydroxy-4-methoxy-phenyl)-ethanone]", "IC50": "< 1000"}, {"smiles": "CCOc1c(OC)ccc(C(=O)Cc2c(Cl)cncc2Cl)c1OCCc1ccccc1", "note": "[Compound 263, 2-(3,5-Dichloro-pyridin-4-yl)-1-(3-ethoxy-4-methoxy-2-phenethyloxy-phenyl)-ethanone]", "IC50": "< 1000"}, {"smiles": "CCOc1c(OC)ccc(C(=O)Cc2c(Cl)cncc2Cl)c1OCc1nnc(C2CC2)s1", "note": "[Compound 264, 1-[2-(5-Cyclopropyl-[1,3,4]thiadiazol-2-ylmethoxy)-3-ethoxy-4-methoxy-phenyl]-2-(3,5-dichloro-pyridin-4-yl)-ethanone]", "IC50": "< 1000"}, {"smiles": "CCOc1c(OC)ccc(C(=O)Cc2c(Cl)cncc2Cl)c1OCC(=O)OCc1ccccc1", "note": "[Compound 265, {6-[2-(3,5-Dichloro-pyridin-4-yl)-acetyl]-2-ethoxy-3-methoxy-phenoxy}-acetic acid benzyl ester]", "IC50": "< 1000"}, {"smiles": "C=CCOc1c(OC)ccc(C(=O)Cc2c(Cl)cncc2Cl)c1O", "note": "[Compound 266, 1-(3-Allyloxy-2-hydroxy-4-methoxy-phenyl)-2-(3,5-dichloro-pyridin-4-yl)-ethanone]", "IC50": "< 1000"}, {"smiles": "C=CCOc1c(OC)ccc(C(=O)Cc2c(Cl)cncc2Cl)c1OCc1ccccc1C#N", "note": "[Compound 267, 2-{2-Allyloxy-6-[2-(3,5-dichloro-pyridin-4-yl)-acetyl]-3-methoxy-phenoxymethyl}-benzonitrile]", "IC50": "< 1000"}, {"smiles": "C=CCOc1c(OC)ccc(C(=O)Cc2c(Cl)cncc2Cl)c1OCCc1ccccc1", "note": "[Compound 268, 1-(3-Allyloxy-4-methoxy-2-phenethyloxy-phenyl)-2-(3,5-dichloro-pyridin-4-yl)-ethanone]", "IC50": "< 1000"}, {"smiles": "C=CCOc1c(OC)ccc(C(=O)Cc2c(Cl)cncc2Cl)c1OCCc1ccc(F)cc1", "note": "[Compound 269, 1-{3-Allyloxy-2-[2-(4-fluoro-phenyl)-ethoxy]-4-methoxy-phenyl}-2-(3,5-dichloro-pyridin-4-yl)-ethanone]", "IC50": "< 1000"}, {"smiles": "COc1ccc(C(=O)Cc2c(Cl)c[n+]([O-])cc2Cl)c(OCC(=O)NCc2ccccc2)c1OC", "note": "[Compound 270, N-Benzyl-2-{6-[2-(3,5-dichloro-1-oxy-pyridin-4-yl)-acetyl]-2,3-dimethoxy-phenoxy}-acetamide]", "IC50": "< 1000"}, {"smiles": "COc1ccc(C(=O)Cc2c(Cl)c[n+]([O-])cc2Cl)c(OCCc2ccccc2)c1OC", "note": "[Compound 271, 2-(3,5-Dichloro-1-oxy-pyridin-4-yl)-1-(3,4-dimethoxy-2-phenethyloxy-phenyl)-ethanone]", "IC50": "< 1000"}, {"smiles": "COc1ccc(C(=O)Cc2c(Cl)cncc2Cl)c(OCCc2ccncc2)c1OC", "note": "[Compound 277, 2-(3,5-Dichloro-pyridin-4-yl)-1-[3,4-dimethoxy-2-(2-pyridin-4-yl-ethoxy)-phenyl]-ethanone]", "IC50": "< 1000"}, {"smiles": "COc1ccc(C(=O)Cc2c(Cl)cncc2Cl)c(OCCc2ccc(C#N)cc2)c1OC", "note": "[Compound 278, 4-(2-{6-[2-(3,5-Dichloro-pyridin-4-yl)-acetyl]-2,3-dimethoxy-phenoxy}-ethyl)-benzonitrile]", "IC50": "< 1000"}, {"smiles": "COc1ccc(C(=O)Cc2c(Cl)cncc2Cl)c(OCCc2ccccn2)c1OC", "note": "[Compound 279, 2-(3,5-Dichloro-pyridin-4-yl)-1-[3,4-dimethoxy-2-(2-pyridin-2-yl-ethoxy)-phenyl]-ethanone]", "IC50": "< 1000"}, {"smiles": "COc1ccc(C(=O)Cc2c(Cl)cncc2Cl)c(OCCc2cccnc2)c1OC", "note": "[Compound 280, 2-(3,5-Dichloro-pyridin-4-yl)-1-[3,4-dimethoxy-2-(2-pyridin-3-yl-ethoxy)-phenyl]-ethanone]", "IC50": "< 1000"}, {"smiles": "COc1ccc(C(=O)Cc2c(Cl)cncc2Cl)c(OCCc2ccc([S+](C)[O-])cc2)c1OC", "note": "(centres unmarked) [Compound 281, 2-(3,5-Dichloro-pyridin-4-yl)-1-{2-[2-(4-methanesulfinyl-phenyl)-ethoxy]-3,4-dimethoxy-phenyl}-ethanone]", "IC50": "< 1000"}, {"smiles": "COc1ccc(C(=O)Cc2c(Cl)cncc2Cl)c(OCCc2ccc(S(C)(=O)=O)cc2)c1OC", "note": "[Compound 282, 2-(3,5-Dichloro-pyridin-4-yl)-1-{2-[2-(4-methanesulfonyl-phenyl)-ethoxy]-3,4-dimethoxy-phenyl}-ethanone]", "IC50": "< 1000"}, {"smiles": "COc1ccc(C(=O)Cc2c(Cl)cncc2Cl)c(OCC(C)c2ccccc2)c1OC", "note": "(centres unmarked) [Compound 284, 2-(3,5-Dichloro-pyridin-4-yl)-1-[3,4-dimethoxy-2-(2-phenyl-propoxy)-phenyl]-ethanone]", "IC50": "< 1000"}, {"smiles": "COc1ccc(C(=O)Cc2c(Cl)cncc2Cl)c(OC(C)Cc2ccccc2)c1OC", "note": "(centres unmarked) [Compound 285, 2-(3,5-Dichloro-pyridin-4-yl)-1-[3,4-dimethoxy-2-(1-methyl-2-phenyl-ethoxy)-phenyl]-ethanone]", "IC50": "< 1000"}, {"smiles": "CCCNC(=O)COc1c(C(=O)Cc2c(Cl)cccc2Cl)ccc(OC)c1OC", "note": "[Compound 288, 2-{6-[2-(2,6-Dichloro-phenyl)-acetyl]-2,3-dimethoxy-phenoxy}-N-propyl-acetamide]", "IC50": "< 1000"}, {"smiles": "CCCNC(=O)COc1c(C(=O)Cc2ccncc2)ccc(OC)c1OC", "note": "[Compound 289, 2-(2,3-Dimethoxy-6-(2-pyridin-4-yl-acetyl)-phenoxy)-N-propyl-acetamide]", "IC50": "< 1000"}, {"smiles": "CCCNC(=O)COc1c(C(=O)Cc2ccnc3ccccc23)ccc(OC)c1OC", "note": "[Compound 290]", "IC50": "< 1000"}, {"smiles": "CCCNC(=O)COc1c(C(=O)Cc2ccncc2Br)ccc(OC)c1OC", "note": "[Compound 292, 2-{6-[2-(3-Bromo-pyridin-4-yl)-acetyl]-2,3-dimethoxy-phenoxy}-N-propyl-acetamide]", "IC50": "< 1000"}, {"smiles": "CCCNC(=O)COc1c(C(=O)Cc2c(Br)cncc2Br)ccc(OC)c1OC", "note": "[Compound 293, 2-{6-[2-(3,5-Dibromo-pyridin-4-yl)-acetyl]-2,3-dimethoxy-phenoxy}-N-propyl-acetamide]", "IC50": "< 1000"}, {"smiles": "COc1ccc(C(=O)Cc2c(Cl)cncc2Cl)c(OCC(=O)O)c1OC", "note": "[Compound 504, {6-[2-(3,5-Dichloro-pyridin-4-yl)-acetyl]-2,3-dimethoxy-phenoxy}-acetic acid]", "IC50": "< 1000"}]}]}
